Results as given in patent US12331054B2, “Perk inhibiting imidazolopyrazine compounds” (HiberCell, Inc., priority 2019, dated 2025).

How the values were obtained:
[1] = biological target: Recombinant human EIF2AK3 (PERK) catalytic domain (amino acids 536-1116) (Homo sapiens (Human), UniProt Q9NZJ5); test: PERK In Vitro Activity Assay (isolated), TR-FRET kinase assay; details: isolated PERK enzyme, 1.5 μM ATP, read-out: Biochemical IC50
Method in brief: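 Recombinant PERK catalytic domain was incubated with 100–200 nM GFP-eIF2a substrate in 50 mM HEPES pH 7.5, 10 mM MgCl2, 1.0 mM EGTA and 0.01% Brij-35 for 45 min at room temperature. After a 10 mM EDTA stop, 2 nM Tb-anti-phospho-eIF2a was added for 90 min, and IC50 was fitted from TR-FRET ratios by 4-parameter logistic regression.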

[2] = test system: eIF2α in HEK293-EGFP-eIF2α cells; test: PERK Cellular Assay (HEK293-EGFP-eIF2α cells, tunicamycin-induced ER stress, TR-FRET); format: cell-based; details: tunicamycin 2 hours
Method in brief: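 Cells pre-incubated with inhibitor 30 min at 37 °C, then ER stress induced with […] tunicamycin for 2 h. TR-FRET read on lysates; ratio normalized to DMSO control as percent inhibition over a 10-point, 3-fold dilution series; IC50 from 4-parameter logistic fit.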

Chain of Recombinant human EIF2AK3 (PERK) catalytic domain (amino acids 536-1116) (Q9NZJ5 536-1116): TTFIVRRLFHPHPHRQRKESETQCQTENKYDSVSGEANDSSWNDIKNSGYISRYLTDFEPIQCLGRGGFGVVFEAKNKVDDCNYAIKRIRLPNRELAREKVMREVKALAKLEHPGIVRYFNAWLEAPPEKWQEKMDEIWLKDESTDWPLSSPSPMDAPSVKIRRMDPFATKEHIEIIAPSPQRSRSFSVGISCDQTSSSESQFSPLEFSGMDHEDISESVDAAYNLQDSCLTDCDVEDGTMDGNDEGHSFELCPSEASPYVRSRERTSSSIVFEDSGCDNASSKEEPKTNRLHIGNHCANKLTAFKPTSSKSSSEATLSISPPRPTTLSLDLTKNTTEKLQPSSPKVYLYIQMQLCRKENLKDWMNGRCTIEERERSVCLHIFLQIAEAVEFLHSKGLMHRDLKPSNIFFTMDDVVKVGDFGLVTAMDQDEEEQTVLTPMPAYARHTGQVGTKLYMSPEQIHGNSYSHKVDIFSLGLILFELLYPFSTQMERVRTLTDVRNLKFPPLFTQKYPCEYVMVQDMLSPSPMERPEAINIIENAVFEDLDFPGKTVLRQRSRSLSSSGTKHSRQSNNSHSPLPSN

SMILES | IC50 [1] [nM] | IC50 [2] [nM]
Cc1cnc(N)c2c(-c3ccc(NC(=O)C(O)c4cccc(F)c4)cc3F)nc(C)n12 (centres unmarked) [Example 71, N-(4-(8-amino-3,5-dimethylimidazo [1,5-a]pyrazin-1-yl)-3-fluorophenyl)-2-(3-fluorophenyl)-2-hydroxy-acetamide] | 1 to 25 | 51 to 100
Cc1cc(NC(=O)C(O)c2cccc(F)c2)ccc1-c1nc(C)n2ccnc(N)c12 (centres unmarked) [Example 2, N-(4-(8-amino-3-methylimidazo[1,5-a]pyrazin-1-yl)-3-methylphenyl)-2-(3-fluorophenyl)-2-hydroxyacetamide] | 26 to 50 | 251 to 500
Cc1cc(NC(=O)C(O)c2cccc(Cl)c2)ccc1-c1nc(C)n2c(C)cnc(N)c12 (centres unmarked) [Example 39, N-(4-(8-amino-3,5-dimethylimidazo [1,5-a]pyrazin-1-yl)-3-methyl-phenyl)-2-(3-chlorophenyl)-2-hydroxyacetamide] | 1 to 25 | 101 to 250
[2H]C([2H])([2H])c1nc(-c2ccc(NC(=O)C(O)c3cccc(C(F)(F)F)c3)cc2C)c2c(N)ncc(C(F)(F)F)n12 (centres unmarked) [Example 21, N-[4-[8-amino-3-(trideuteriomethyl)-5-(trifluoromethyl)imidazo[1,5-a]pyrazin-1-yl]-3-methyl-phenyl]-2-hydroxy-2-[3-(trifluoromethyl)phenyl]acetamide] | 51 to 100 | 501 to 1000
[2H]C([2H])([2H])c1nc(-c2ccc(NC(=O)C(O)c3cc(F)cc(C(F)(F)F)c3)cc2C)c2c(N)ncc(C)n12 (centres unmarked) [Example 54, N-[4-[8-amino-5-methyl-3-(trideuteriomethyl)imidazo[1,5-a]pyrazin-1-yl]-3-methyl-phenyl]-2-[3-fluoro-5-(trifluoromethyl)phenyl]-2-hydroxy-acetamide] | 1 to 25 | 1 to 25
Cc1cc(NC(=O)C(O)c2cccc(F)c2)ccc1-c1nc(C)n2c(C(F)(F)F)cnc(N)c12 (centres unmarked) [Example 27, N-(4-(8-amino-3-methyl-5-(trifluoromethyl)imidazo[1,5-a]pyrazin-1-yl)-3-methylphenyl)-2-(3-fluorophenyl)-2-hydroxyacetamide] | 1 to 25 | 251 to 500
[2H]C([2H])([2H])c1nc(-c2ccc(NC(=O)C(O)c3cccc(C(F)(F)F)c3)cc2C)c2c(N)nc(C)cn12 (centres unmarked) [Example 14, N-[4-[8-amino-6-methyl-3-(trideuteriomethyl)imidazo[1,5-a]pyrazin-1-yl]-3-methyl-phenyl]-2-hydroxy-2-[3-(trifluoromethyl)phenyl]acetamide] | 1 to 25 | 26 to 50
Cc1cnc(N)c2c(-c3ccc(NC(=O)C(O)c4cccc(F)c4)cc3)nc(C)n12 (centres unmarked) [Example 68, N-(4-(8-amino-3,5-dimethylimidazo [1,5-a]pyrazin-1-yl)phenyl)-2-(3-fluorophenyl)-2-hydroxyacetamide] | 1 to 25 | 101 to 250
[2H]C([2H])([2H])c1nc(-c2ccc(NC(=O)C(O)c3cc(F)cc(C(F)(F)F)c3)cc2C)c2c(N)ncc(C)n12 (centres unmarked) [Example 55, N-[4-[8-amino-5-methyl-3-(trideuteriomethyl)imidazo[1,5-a]pyrazin-1-yl]-3-methyl-phenyl]-2-[3-fluoro-5-(trifluoromethyl)phenyl]-2-hydroxy-acetamide] | 1 to 25 | 101 to 250
[2H]C([2H])([2H])c1nc(-c2ccc(NC(=O)C(O)c3cc(F)cc(C(F)(F)F)c3)cc2C)c2c(N)ncc(C(F)(F)F)n12 (centres unmarked) [Example 61, N-[4-[8-amino-3-(trideuteriomethyl)-5-(trifluoromethyl)imidazo[1,5-a]pyrazin-1-yl]-3-methyl-phenyl]-2-[3-fluoro-5-(trifluoromethyl)phenyl]-2-hydroxy-acetamide] | 51 to 100 | 251 to 500
Cc1cc(F)cc(C(O)C(=O)Nc2ccc(-c3nc(C)n4c(C)cnc(N)c34)c(C)c2)c1 (centres unmarked) [Example 63, N-(4-(8-amino-3,5-dimethylimidazo [1,5-a]pyrazin-1-yl)-3-methyl-phenyl)-2-(3-fluoro-5-methylphenyl)-2-hydroxyacetamide] | 1 to 25 | 51 to 100
[2H]C([2H])([2H])c1nc(-c2ccc(NC(=O)C(O)c3cccc(F)c3)cc2F)c2c(N)ncc(Cl)n12 (centres unmarked) [Example 75, N-[4-[8-amino-5-chloro-3-(trideuteriomethyl)imidazo[1,5-a]pyrazin-1-yl]-3-fluoro-phenyl]-2-(3-fluorophenyl)-2-hydroxy-acetamide] | 1 to 25 | 26 to 50

The next lines start with results.

IC50 [1] [nM] | SMILES | IC50 [2] [nM]
1 to 25 | [2H]C([2H])([2H])c1nc(-c2cnc(NC(=O)C(O)c3cccc(C(F)(F)F)c3)cc2C)c2c(N)nc(C)cn12 (centres unmarked) [Example 182, N-[5-[8-amino-6-methyl-3-(trideuteriomethyl)imidazo[1,5-a]pyrazin-1-yl]-4-methyl-2-pyridyl]-2-hydroxy-2-[3-(trifluoromethyl)phenyl]acetamide] | 101 to 250
1 to 25 | [2H]C([2H])([2H])c1nc(-c2ccc(NC(=O)C(O)c3cc(F)cc(C(F)(F)F)c3)cc2F)c2c(N)nc(C)cn12 (centres unmarked) [Example 116, N-[4-[8-amino-6-methyl-3-(trideuteriomethyl)imidazo[1,5-a]pyrazin-1-yl]-3-fluoro-phenyl]-2-[3-fluoro-5-(trifluoromethyl)phenyl]-2-hydroxy-acetamide] | 1 to 25
1 to 25 | [2H]C([2H])([2H])c1nc(-c2ccc(NC(=O)C(O)c3cccc(C(F)(F)F)c3)nc2C)c2c(N)ncc(C)n12 (centres unmarked) [Example 174, N-[5-[8-amino-5-methyl-3-(trideuteriomethyl)imidazo[1,5-a]pyrazin-1-yl]-6-methyl-2-pyridyl]-2-hydroxy-2-[3-(trifluoromethyl)phenyl]acetamide] | 26 to 50
1 to 25 | [2H]C([2H])([2H])c1nc(-c2ccc(NC(=O)C(O)c3cccc(F)c3)c(F)c2F)c2c(N)ncc(C)n12 (centres unmarked) [Example 133, N-[4-[8-amino-5-methyl-3-(trideuteriomethyl)imidazo[1,5-a]pyrazin-1-yl]-2,3-difluoro-phenyl]-2-(3-fluoro-phenyl)-2-hydroxy-acetamide] | 101 to 250
1 to 25 | [2H]C([2H])([2H])c1nc(-c2ccc(NC(=O)C(O)c3cccc(C(F)(F)F)c3)cc2F)c2c(N)nc(C)cn12 (centres unmarked) [Example 96, N-[4-[8-amino-6-methyl-3-(trideuteriomethyl)imidazo[1,5-a]pyrazin-1-yl]-3-fluoro-phenyl]-2-hydroxy-2-[3-(trifluoromethyl)phenyl]acetamide] | 1 to 25
1 to 25 | [2H]C([2H])([2H])c1nc(-c2ccc(NC(=O)C(O)c3cc(F)cc(F)c3)cc2F)c2c(N)ncc(C(F)(F)F)n12 (centres unmarked) [Example 106, N-[4-[8-amino-3-(trideuteriomethyl)-5-(trifluoromethyl)imidazo[1,5-a]pyrazin-1-yl]-3-fluoro-phenyl]-2-(3,5-difluoro-phenyl)-2-hydroxy-acetamide] | 1 to 25
1 to 25 | [2H]C([2H])([2H])c1nc(-c2ccc(NC(=O)C(O)c3cccc(Cl)c3)c(F)c2F)c2c(N)ncc(C)n12 (centres unmarked) [Example 139, N-[4-[8-amino-5-methyl-3-(trideuteriomethyl)imidazo[1,5-a]pyrazin-1-yl]-2,3-difluoro-phenyl]-2-(3-chlorophenyl)-2-hydroxy-acetamide] | 101 to 250
1 to 25 | [2H]C([2H])([2H])c1nc(-c2ccc(NC(=O)C(O)c3cc(F)cc(F)c3)cc2F)c2c(N)ncc(C(F)(F)F)n12 (centres unmarked) [Example 107, N-[4-[8-amino-3-(trideuteriomethyl)-5-(trifluoromethyl)imidazo[1,5-a]pyrazin-1-yl]-3-fluoro-phenyl]-2-(3,5-difluoro-phenyl)-2-hydroxy-acetamide] | 26 to 50
26 to 50 | [2H]C([2H])([2H])c1nc(-c2ccc(NC(=O)C(O)c3cc(F)cc(C(F)(F)F)c3)c(F)c2F)c2c(N)nc(C)cn12 (centres unmarked) [Example 167, N-[4-[8-amino-6-methyl-3-(trideuteriomethyl)imidazo[1,5-a]pyrazin-1-yl]-2,3-difluoro-phenyl]-2-[3-fluoro-5-(trifluoromethyl)phenyl]-2-hydroxy-acetamide] | 101 to 250
1 to 25 | [2H]C([2H])([2H])c1nc(-c2ccc(NC(=O)C(O)c3cc(F)cc(C(F)(F)F)c3)cc2F)c2c(N)ncc(C)n12 (centres unmarked) [Example 111, N-[4-[8-amino-5-methyl-3-(trideuteriomethyl)imidazo[1,5-a]pyrazin-1-yl]-3-fluoro-phenyl]-2-[3-fluoro-5-(trifluoromethyl)phenyl]-2-hydroxy-acetamide] | 26 to 50
1 to 25 | [2H]C([2H])([2H])c1nc(-c2ccc(NC(=O)C(O)c3cc(F)cc(F)c3)cc2F)c2c(N)ncc(C)n12 (centres unmarked) [Example 104, N-[4-[8-amino-5-methyl-3-(trideuteriomethyl)imidazo[1,5-a]pyrazin-1-yl]-3-fluoro-phenyl]-2-(3,5-difluoro-phenyl)-2-hydroxy-acetamide] | 1 to 25
1 to 25 | [2H]C([2H])([2H])c1nc(-c2ccc(NC(=O)C(O)c3cccc(F)c3)c(F)c2F)c2c(N)ncc(Cl)n12 (centres unmarked) [Example 137, N-[4-[8-amino-5-chloro-3-(trideuteriomethyl)imidazo[1,5-a]pyrazin-1-yl]-2,3-difluoro-phenyl]-2-(3-fluoro-phenyl)-2-hydroxy-acetamide] | 251 to 500
1 to 25 | [2H]C([2H])([2H])c1nc(-c2ccc(NC(=O)C(O)c3cccc(F)c3)c(F)c2F)c2c(N)ncc(C)n12 (centres unmarked) [Example 132, N-[4-[8-amino-5-methyl-3-(trideuteriomethyl)imidazo[1,5-a]pyrazin-1-yl]-2,3-difluoro-phenyl]-2-(3-fluoro-phenyl)-2-hydroxy-acetamide] | 1 to 25
